For orientation: IC50 means the concentration that gives 50% inhibition. Higher therefore signals lower potency.

The structures appear in SMILES notation.

The assay deals with HAdV-37 virions. Put plainly: Binding assay: inhibition of the binding of 35S-labeled HAdV-37 virions to HCE cells. The format is cell-based. The following applies: monovalent sialic acid, stated for comparison with Table 1. Here is the method: HCE (human corneal epithelial) and A549 cells were grown as previously described (Araki-Sasaki, K., Ohasi, K. Y., Sasabe, T., Hayashi, K., Watanabe, H., Tano, Y., Handa, H., 1995. “An SV-40-immortalized human corneal epithelial cell line and its characterization.” Invest. Ophtahlmol. 36, 614-621 and Amberg, N., Edlund, K., Kidd, A. H., Wadell, G., 2000a. Adenovirus type 37 uses sialic acid as a cellular receptor. J. Virol. 74, 42-48.).
HAdV37 (strain 1477) virions were produced as follows: 0.3 mL of HAdV37 inoculation material (prepared from infected A549 cells) was added to A549 cells (175 cm^2 flasks) and incubated for 2 h at 37° C. […] The specific radioactivity of labeled virions was determined to be 4×10^−6 cpm per virion. The identity of HAdV-37 was determined by digesting viral DNA with restriction enzymes and compared to established patterns for HAdV-37 prototype strain (Wadell, G., Sundell, G., de Jong, J. C., 1981. Characterization of candidate adenovirus 37 by SDS-polyacrylamide gel electrophoresis of virion polypeptides and DNA restriction site mapping. J. Med. Virol. 7, 119-125.). […]
After one additional hour, unbound virions were removed by washing, and the cell-associated radioactivity was measured with a Wallac 1409 scintillation counter (Perkin-Elmer). […]

`CC(=O)N[C@H]1[C@H]([C@H](O)[C@H](O)CO)OC(O)(C(=O)O)C[C@@H]1O` (stereo partly shown) [sialic acid] yielded an IC50 of 2 to 5 mM.
